Source: patent publication US12540137B2, “N-1 branched alkyl ether substituted imidazo[4,5-c]quinoline compounds, compositions, and methods” (Solventum Intellectual Properties Company, priority 2018, dated 2026)

Columns and labels:
human TLR7 = target: T1, human TLR7 (Homo sapiens, UniProt Q9NYK1); test: TLR activation, HEK-BLUE-hTLR7 SEAP reporter cells; type: cell-based; conditions: 16-20 hours, SEAP response at least 2× vehicle control, tested 0.01-30 micromolar
T1 construct: host or cells: HEK293 (HEK-BLUE-hTLR7)
T1 sequence (Q9NYK1 27-1049): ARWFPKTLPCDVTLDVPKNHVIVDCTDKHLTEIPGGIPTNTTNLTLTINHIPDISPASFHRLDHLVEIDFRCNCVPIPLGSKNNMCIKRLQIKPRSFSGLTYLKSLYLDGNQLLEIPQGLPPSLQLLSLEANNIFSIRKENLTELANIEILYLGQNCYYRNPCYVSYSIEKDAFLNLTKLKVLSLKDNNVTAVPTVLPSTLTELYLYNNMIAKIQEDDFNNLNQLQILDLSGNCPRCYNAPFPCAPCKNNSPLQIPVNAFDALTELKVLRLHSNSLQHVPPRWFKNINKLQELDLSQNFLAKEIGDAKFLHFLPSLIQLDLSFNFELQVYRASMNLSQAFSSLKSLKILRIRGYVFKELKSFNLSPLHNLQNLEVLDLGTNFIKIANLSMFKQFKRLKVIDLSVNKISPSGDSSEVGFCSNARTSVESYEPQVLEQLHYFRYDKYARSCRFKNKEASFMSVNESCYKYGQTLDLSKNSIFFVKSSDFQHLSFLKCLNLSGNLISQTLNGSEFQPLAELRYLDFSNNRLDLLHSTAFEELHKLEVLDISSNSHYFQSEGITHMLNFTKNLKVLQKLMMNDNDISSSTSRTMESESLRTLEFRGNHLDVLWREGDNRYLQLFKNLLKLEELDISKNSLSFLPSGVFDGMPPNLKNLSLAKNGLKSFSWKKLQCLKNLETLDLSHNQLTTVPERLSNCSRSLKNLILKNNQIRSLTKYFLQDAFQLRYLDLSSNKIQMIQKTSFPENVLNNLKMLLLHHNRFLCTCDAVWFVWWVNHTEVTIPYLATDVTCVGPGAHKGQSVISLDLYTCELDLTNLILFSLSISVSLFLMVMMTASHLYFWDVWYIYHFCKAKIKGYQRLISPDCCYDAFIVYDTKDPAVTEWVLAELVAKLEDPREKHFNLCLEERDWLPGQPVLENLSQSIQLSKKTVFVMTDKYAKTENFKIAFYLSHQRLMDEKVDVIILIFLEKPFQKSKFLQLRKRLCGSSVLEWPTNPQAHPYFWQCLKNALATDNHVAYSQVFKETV
Description: (§1) HEK-BLUE-hTLR7 or hTLR8 reporter cells were obtained from InvivoGen, San Diego, CA. According to the manufacturer's description, these reporter cells were prepared by co-transfection of HEK293 cells with an inducible secreted embryonic alkaline phosphatase (SEAP) reporter gene and either the human TLR7 or TLR8 gene. The SEAP reporter gene was placed under the control of an IFN−β minimal promoter fused to five NF-κB and AP-1-binding sites. In the presence of a TLR ligand, activation of NF-κB and AP-1 occurs, resulting in a corresponding increase in SEAP levels.
(§2) In the assay, the HEK cells were grown and maintained using standard cell culture techniques in a growth medium that contained Dulbecco's Modified Eagle Medium (ThermoFisher Scientific Incorporated, Waltham, MA) supplemented with 1% penicillin/streptomycin and 10% heat-inactivated Gibco fetal bovine serum (ThermoFisher Scientific). Each compound was solubilized in DMSO to create a 3 mM stock solution. The stock solution was then further diluted with the growth medium to prepare serial dilutions. Each test compound was tested at a concentration of 30, 10, 3.3, 1.1, 0.37, 0.12, 0.04, and 0.01 micromolar using a 96-well format with 5×10^4 cells and 200 microliters of growth medium per well.
(§3) For each compound, hTLR7, hTLR8, and their respective null control HEK cells were screened. DMSO serially diluted into the growth medium served as the vehicle control. Cell culture supernatants containing the SEAP reporter were collected after an incubation period of 16-20 hours in a cell culture incubator (37° C. and 5% CO2), and either analyzed immediately or stored at −80° C. SEAP levels were measured using the colorimetric enzyme assay (QUANTI-BLUE (InvivoGen) according to manufacturer's instructions.
(§4) Specifically, the minimum effective concentration of each compound (micromolar) was determined as the lowest concentration of the compound that produced a SEAP expression response at least 2× greater than that observed with the vehicle control wells.

human TLR8 = target: T2, human TLR8 (Homo sapiens, UniProt Q9NR97); test: TLR activation, HEK-BLUE-hTLR8 SEAP reporter cells; type: cell-based; conditions: 16-20 hours, SEAP response at least 2× vehicle control, tested 0.01-30 micromolar
T2 construct: host or cells: HEK293 (HEK-BLUE-hTLR8)
T2 sequence (Q9NR97 27-1041): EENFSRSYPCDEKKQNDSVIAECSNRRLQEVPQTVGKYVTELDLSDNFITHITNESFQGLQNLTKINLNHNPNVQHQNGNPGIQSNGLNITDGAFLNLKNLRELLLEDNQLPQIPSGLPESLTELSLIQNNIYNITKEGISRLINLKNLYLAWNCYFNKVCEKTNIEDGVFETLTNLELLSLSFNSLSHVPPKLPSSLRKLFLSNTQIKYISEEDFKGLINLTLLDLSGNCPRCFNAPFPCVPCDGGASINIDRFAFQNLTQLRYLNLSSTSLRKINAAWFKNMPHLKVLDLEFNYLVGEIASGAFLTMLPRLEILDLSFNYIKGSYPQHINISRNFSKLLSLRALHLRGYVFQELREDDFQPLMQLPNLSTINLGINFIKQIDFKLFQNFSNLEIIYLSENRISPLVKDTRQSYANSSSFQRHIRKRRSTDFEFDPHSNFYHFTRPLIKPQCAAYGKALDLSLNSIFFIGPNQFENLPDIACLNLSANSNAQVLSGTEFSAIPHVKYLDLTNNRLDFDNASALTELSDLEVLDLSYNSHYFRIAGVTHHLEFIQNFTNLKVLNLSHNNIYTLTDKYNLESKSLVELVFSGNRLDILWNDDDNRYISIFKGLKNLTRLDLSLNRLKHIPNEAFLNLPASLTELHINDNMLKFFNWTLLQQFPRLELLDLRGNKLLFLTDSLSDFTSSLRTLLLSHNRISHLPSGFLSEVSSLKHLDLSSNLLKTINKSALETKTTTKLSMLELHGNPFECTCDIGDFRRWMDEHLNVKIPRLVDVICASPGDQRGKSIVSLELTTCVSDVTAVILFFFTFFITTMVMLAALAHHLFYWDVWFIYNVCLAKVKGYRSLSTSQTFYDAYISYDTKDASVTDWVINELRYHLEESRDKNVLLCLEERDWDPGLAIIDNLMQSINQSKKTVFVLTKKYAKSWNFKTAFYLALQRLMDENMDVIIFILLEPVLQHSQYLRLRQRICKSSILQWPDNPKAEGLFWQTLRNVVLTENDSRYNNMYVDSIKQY
Description: as §1, §2, §3, §4

- MEC to Produce TLR Activation TLR 7 (human TLR7): 0.04 µM
- MEC to Produce TLR Activation TLR 8 (human TLR8): 30 µM
Structure (SMILES): CCOC[C@@H](n1cnc2c(N)nc3ccccc3c21)C1(O)CCCC1 [Example 14, 1-[(1R)-1-(4-aminoimidazo[4,5-c]quinolin-1-yl)-2-ethoxy-ethyl]cyclopentanol]
